Results on three compounds are retold here after US9328360B2, “Conversion of glycerol to 1,3-propanediol under haloalkaline conditions” (The Curators of the University of Missouri, priority 2013, dated 2016).

Holding throughout (format): cell-based, Halanaerobium hydrogeniformans
The test system of experiment [1] is H. hydrogeniformans. As to the kind of experiment: Tolerance of H. hydrogeniformans to glycerol (growth by turbidity). As to conditions: 7% NaCl, pH 11. On the procedure:
The tolerance of H. hydrogeniformans to concentrations of glycerol was examined. Anaerobic cultures were prepared in 160 mL serum bottles. The medium was prepared by boiling to degas under a N2 blanket. As the medium cooled, reductant stock mix was added to the media that contained 0.75 g Na2S and 0.6 g cysteine per liter. Once the media was cooled, the flasks were transferred into a Coy anaerobic glove bag where the 50 mL of media was dispensed into 160 mL serum bottles filled and autoclaved (121° C., 20 min). After autoclaving, the headspace gas was exchanged for 80% N2/20% CO2 mixture. The bottles then were inoculated with a 10% inoculum from previous stock cultures. Sterilized glycerol was added to the serum bottles to achieve 7.5, 15, 30, 60, 120, 240, 480, 960, and 1920 mM. Growth was examined by turbidity readings taken at […].

Experiment [2] has as its system H. hydrogeniformans. As to the kind of experiment: Requirement of B12: 1,3-propanediol production from 30 mM glycerol over a vitamin B12 gradient (HPLC). As to conditions: for Percent mole/mole conversion of glycerol to 1,3-propanediol / 1,3-propanediol produced: 30 mM glycerol. The method, then: Anaerobic cultures were prepared in 160 mL serum bottles. The medium was prepared by boiling to degas under a N2 blanket. As the medium cooled, reductant stock mix was added to the media that contained 0.75 g Na2S and 0.6 g cysteine per liter. Once the media was cooled, the flasks were transferred into a Coy anaerobic glove bag where the 50 mL of media was dispensed into 160 mL serum bottles filled and autoclaved (121° C., 20 min). After autoclaving, the headspace gas was exchanged for 80% N2/20% CO2 mixture. The bottles then were inoculated with a 10% inoculum from previous stock cultures. 30 mM glycerol was added. Vitamin B12 supplementation from anaerobic, filter-sterilized stocks were added right before inoculation at 0 μg/L, 25 μg/L, 50 μg/L, 75 μg/L, and 100 μg/L.
Samples were taken every 24 hours. 5 mL syringes were degassed with N2/CO2 mix, and 1 mL of culture sample was removed for each of the sample periods. The sample was placed in a 1.5 mL Eppendorf tube, and centrifuged for 5 min at 13,000×g. The supernatant was decanted into another 1.5 mL Eppendorf tube, and frozen for HPLC analysis.
For HPLC analysis, filter sterilized samples ([…] PTFE filters) were injected onto a 300×7.8 mm Aminex HPX-87H column (BioRad, Hercules, Calif.) maintained at 50° C. The mobile phase was 2.5 mM H2SO4 maintained at a constant flow rate of 0.6 ml/min and at approximately 2.2 MPa. Detection was done with both a UV 231 (at 210 nm) and refractive index monitor.

Experiment [3] deals with H. hydrogeniformans. As to the kind of experiment: Tolerance of H. hydrogeniformans to 1,3-propanediol (growth by turbidity). As to conditions: for Growth: 30 mM glycerol. On the procedure: The tolerance of H. hydrogeniformans to increasing concentrations of 1,3-propanediol was examined. Anaerobic cultures were prepared in 160 mL serum bottles. The medium was prepared by boiling to degas under a N2 blanket. As the medium cooled, reductant stock mix was added to the media that contained 0.75 g Na2S and 0.6 g cysteine per liter. Once the media was cooled, the flasks were transferred into a Coy anaerobic glove bag where the 50 mL of media was dispensed into 160 mL serum bottles filled and autoclaved (121° C., 20 min). After autoclaving, the headspace gas was exchanged for 80% N2/20% CO2 mixture. The bottles then were inoculated with a 10% inoculum from previous stock cultures and amended with 30 mM glycerol. Sterilized 1,3-propanediol was added to the serum bottles to achieve 10, 30, 60, 120, 380, and 750 mM. Growth was examined by turbidity readings taken at […].

Consider `OCC(O)CO` [Glycerol, glycerol], for which the Growth result in experiment [1] (Glycerol 7.5 mM), in experiment [1] (Glycerol 15 mM), in experiment [1] (Glycerol 30 mM), in experiment [1] (Glycerol 60 mM), in experiment [1] (Glycerol 120 mM) and in experiment [1] (Glycerol 240 mM) was “capable of growth” throughout. In addition, the Growth result in experiment [1] (Glycerol 480 mM), in experiment [1] (Glycerol 960 mM) and in experiment [1] (Glycerol 1920 mM) was “capable of growth” each time. For the same compound, the “Percent mole/mole conversion of glycerol to 1,3-propanediol” value in experiment [2] (B12 amendment 0 μg/L) was 31.5 % mol 1,3-propandiol/mol glycerol. The compound also displayed a conversion rate in experiment [2] (absence of B12) of 31%. In addition, the “1,3-propanediol produced” value in experiment [2] (no vitamin B12 provided) is listed as “approximately 8.5 mM”.

Regarding `OCCCO` [1,3-propanediol], the Growth entry in experiment [3] (1,3-propanediol 10 mM), in experiment [3] (1,3-propanediol 30 mM), in experiment [3] (1,3-propanediol 60 mM), in experiment [3] (1,3-propanediol 120 mM) and in experiment [3] (1,3-propanediol 380 mM) was “capable of growth” throughout. The “1,3-propanediol concentration at which growth is possible” value in experiment [3] (7% NaCl, pH 11) worked out at 380 mM. Further, the “1,3-propanediol concentration tolerated” value in experiment [3] (in addition to 7% (w/v) and pH 11) is on record as “at least 0.38 M”.

As for vitamin B12, the “Percent mole/mole conversion of glycerol to 1,3-propanediol” value in experiment [2] (B12 amendment 25 μg/L) is given as 59.1 % mol 1,3-propandiol/mol glycerol; in experiment [2] (B12 amendment 50 μg/L), 60.3 % mol 1,3-propandiol/mol glycerol; in experiment [2] (B12 amendment 75 μg/L), 60.1 % mol 1,3-propandiol/mol glycerol; in experiment [2] (B12 amendment 100 μg/L), 60.2 % mol 1,3-propandiol/mol glycerol. Further, in experiment [2] (B12 supplementation >25 μg/L), the conversion rate result is “approximately 60%”. The “1,3-propanediol produced” value in experiment [2] (culture amended with 25, 50, 75, or 100 μg/L vitamin B12) is given as “Approximately 16.5 mM”.
